Patent US10766865B2, “PKM2 modulators and methods for their use” (TOLERO PHARMACEUTICALS, INC., priority 2012, dated 2020)

Biological target: PKM2 (Homo sapiens, UniProt P14618)
Assay: PKM2 Biochemical Assay
Conditions: % maximum response in a biochemical assay as compared with Fructose 1,6-bisphosphate

Sequence of PKM2 (P14618 whole entry): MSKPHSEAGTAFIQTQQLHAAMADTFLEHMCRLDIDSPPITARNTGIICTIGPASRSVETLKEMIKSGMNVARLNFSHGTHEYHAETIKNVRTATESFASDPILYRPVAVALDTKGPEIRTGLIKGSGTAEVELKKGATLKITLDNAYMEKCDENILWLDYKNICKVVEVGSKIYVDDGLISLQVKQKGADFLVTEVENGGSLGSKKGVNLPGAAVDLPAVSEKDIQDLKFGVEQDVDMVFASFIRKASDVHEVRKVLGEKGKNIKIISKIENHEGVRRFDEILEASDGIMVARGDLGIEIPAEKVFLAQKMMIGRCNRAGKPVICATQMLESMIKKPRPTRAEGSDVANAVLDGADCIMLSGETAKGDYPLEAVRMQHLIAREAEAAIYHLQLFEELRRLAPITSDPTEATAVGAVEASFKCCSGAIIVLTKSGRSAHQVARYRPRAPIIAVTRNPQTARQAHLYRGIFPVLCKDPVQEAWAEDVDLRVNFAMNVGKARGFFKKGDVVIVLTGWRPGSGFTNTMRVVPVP

With CN(C)CCN(Cc1ccccc1Cl)C(=O)c1cc(C(F)(F)F)n[nH]1 [Example 187, N-(2-chlorobenzyl)-N-(2-(dimethylamino)ethyl)-3-(trifluoromethyl)-1H-pyrazole-5-carboxamide] the “Max. Resp.” value was 100%.

With CC1CC(C)CN(CCN(Cc2ccccc2Cl)C(=O)c2cc(C(F)(F)F)n[nH]2)C1 (stereo not shown) [Example 188, N-(2-chlorobenzyl)-3-(trifluoromethyl)-N-(2-(3,5-dimethylpiperidin-1-yl)ethyl)-1H-pyrazole-5-carboxamide] the “Max. Resp.” value was 60%.

In the case of O=C(c1cc(C(F)(F)F)n[nH]1)N(CCN1CCCCCC1)Cc1ccccc1Cl [Example 189, N-(2-chlorobenzyl)-N-(2-(azepan-1-yl)ethyl)-3-(trifluoromethyl)-1H-pyrazole-5-carboxamide], the “Max. Resp.” value is reported as 100%.

In the case of CC1CCN(CCN(Cc2ccccc2Cl)C(=O)c2cc(C(F)(F)F)n[nH]2)CC1 [Example 190, N-(2-chlorobenzyl)-3-(trifluoromethyl)-N-(2-(4-methylpiperidin-1-yl)ethyl)-1H-pyrazole-5-carboxamide], the “Max. Resp.” value is reported as 100%.

With CC1CCCN(CCN(Cc2ccccc2Cl)C(=O)c2cc(C(F)(F)F)n[nH]2)C1 (stereo not shown) [Example 191, N-(2-chlorobenzyl)-3-(trifluoromethyl)-N-(2-(3-methylpiperidin-1-yl)ethyl)-1H-pyrazole-5-carboxamide] the “Max. Resp.” value was 100%.

CC1CCCCN1CCN(Cc1ccccc1Cl)C(=O)c1cc(C(F)(F)F)n[nH]1 (stereo not shown) [Example 192, N-(2-chlorobenzyl)-3-(trifluoromethyl)-N-(2-(2-methylpiperidin-1-yl)ethyl)-1H-pyrazole-5-carboxamide] was tested, and the “Max. Resp.” value was 100%.

For CCN(CC)CCN(Cc1ccccc1Cl)C(=O)c1[nH]nc(Cl)c1F [Example 193, N-(2-chlorobenzyl)-3-chloro-N-(2-(diethylamino)ethyl)-4-fluoro-1H-pyrazole-5-carboxamide], the “Max. Resp.” value was 58%.

With O=C(c1cc(C(F)(F)F)n[nH]1)N(CCN1CCCCCC1)Cc1ccc(O)cc1Cl [Example 194, N-(2-chloro-4-hydroxybenzyl)-N-(2-(azepan-1-yl)ethyl)-3-(trifluoromethyl)-1H-pyrazole-5-carboxamide] the “Max. Resp.” value was 100%.

In the case of O=C(c1cc(C(F)(F)F)n[nH]1)N(CCN1CCCCCC1)Cc1ccc(O)cc1F [Example 195, N-(2-fluoro-4-hydroxybenzyl)-N-(2-(azepan-1-yl)ethyl)-3-(trifluoromethyl)-1H-pyrazole-5-carboxamide], the “Max. Resp.” value is reported as 100%.

With Nc1ccc(Cl)c(CN(CCN2CCCCCC2)C(=O)c2cc(C(F)(F)F)n[nH]2)c1 [Example 196, N-(5-amino-2-chlorobenzyl)-N-(2-(azepan-1-yl)ethyl)-3-(trifluoromethyl)-1H-pyrazole-5-carboxamide] the “Max. Resp.” value was 100%.

O=C(c1cc(C(F)(F)F)n[nH]1)N(CCN1CCCCCC1)Cc1ccccc1F [Example 197, N-(2-fluorobenzyl)-N-(2-(azepan-1-yl)ethyl)-3-(trifluoromethyl)-1H-pyrazole-5-carboxamide] was tested, and the “Max. Resp.” value was 100%.

For O=C(c1cc(C(F)(F)F)n[nH]1)N(CCN1CCCCCC1)Cc1c(F)cccc1F [Example 198, N-(2,6-difluorobenzyl)-N-(2-(azepan-1-yl)ethyl)-3-(trifluoromethyl)-1H-pyrazole-5-carboxamide], the “Max. Resp.” value was 100%.

CCC1CCN(CCN(Cc2ccccc2Cl)C(=O)c2cc(C(F)(F)F)n[nH]2)CC1 [Example 199, N-(2-chlorobenzyl)-N-(2-(4-ethylpiperidin-1-yl)ethyl)-3-(trifluoromethyl)-1H-pyrazole-5-carboxamide] was tested, and the “Max. Resp.” value was 100/100%.

With CC1CCCN(CCN(Cc2cc(N)ccc2Cl)C(=O)c2cc(C(F)(F)F)n[nH]2)C1 (stereo not shown) [Example 200, N-(5-amino-2-chlorobenzyl)-3-(trifluoromethyl)-N-(2-(3-methylpiperidin-1-yl)ethyl)-1H-pyrazole-5-carboxamide] the “Max. Resp.” value was 100%.

In the case of CC1CCCN(CCN(Cc2ccccc2F)C(=O)c2cc(C(F)(F)F)n[nH]2)C1 (stereo not shown) [Example 201, N-(2-fluorobenzyl)-3-(trifluoromethyl)-N-(2-(3-methylpiperidin-1-yl)ethyl)-1H-pyrazole-5-carboxamide], the “Max. Resp.” value is reported as 100%.

With CC1CCCCN1CCN(Cc1cc(N)ccc1Cl)C(=O)c1cc(C(F)(F)F)n[nH]1 (stereo not shown) [Example 202, N-(5-amino-2-chlorobenzyl)-3-(trifluoromethyl)-N-(2-(2-methylpiperidin-1-yl)ethyl)-1H-pyrazole-5-carboxamide] the “Max. Resp.” value was 100%.

CC1CCCCN1CCN(Cc1ccccc1F)C(=O)c1cc(C(F)(F)F)n[nH]1 (stereo not shown) [Example 203, N-(2-fluorobenzyl)-3-(trifluoromethyl)-N-(2-(2-methylpiperidin-1-yl)ethyl)-1H-pyrazole-5-carboxamide] was tested, and the “Max. Resp.” value was 100%.

With CCN(CCN(Cc1ccccc1Cl)C(=O)c1cc(C(F)(F)F)n[nH]1)C(C)C [Example 204, N-(2-chlorobenzyl)-N-(2-(ethyl-isopropylamino)ethyl)-3-(trifluoromethyl)-1H-pyrazole-5-carboxamide] the “Max. Resp.” value was 53%.

In the case of O=C(c1cc(C(F)(F)F)n[nH]1)N(CCN1CCC(F)(F)CC1)Cc1ccccc1Cl [Example 205, N-(2-chlorobenzyl)-3-(trifluoromethyl)-N-(2-(4,4-difluoropiperidin-1-yl)ethyl)-1H-pyrazole-5-carboxamide], the “Max. Resp.” value is reported as 100%.

In the case of O=C(c1cc(C(F)(F)F)n[nH]1)N(CCN1CCCC1)Cc1cccc2[nH]cc(F)c12 [Example 206, N-((3-fluoro-1H-indol-4-yl)methyl)-3-(trifluoromethyl)-N-(2-(pyrrolidin-1-yl)ethyl)-1H-pyrazole-5-carboxamide], the “Max. Resp.” value is reported as 100%.

With Nc1ccc(CN(CCN2CCCCCC2)C(=O)c2cc(C(F)(F)F)n[nH]2)c(Cl)c1 [Example 207, N-(4-amino-2-chlorobenzyl)-N-(2-(azepan-1-yl)ethyl)-3-(trifluoromethyl)-1H-pyrazole-5-carboxamide] the “Max. Resp.” value was 75%.

With O=C(c1cc(C(F)(F)F)n[nH]1)N(CCN1CCCCCC1)Cc1cccc2nc[nH]c12 [Example 208, N-((1H-benzo[d]imidazol-7-yl)methyl)-N-(2-(azepan-1-yl)ethyl)-3-(trifluoromethyl)-1H-pyrazole-5-carboxamide] the “Max. Resp.” value was 100%.

In the case of CCCN(CC)CCN(Cc1ccccc1Cl)C(=O)c1cc(C(F)(F)F)n[nH]1 [Example 209, N-(2-chlorobenzyl)-N-(2-(ethyl-propylamino)ethyl)-3-(trifluoromethyl)-1H-pyrazole-5-carboxamide], the “Max. Resp.” value is reported as 100%.

With O=C(c1cc(C(F)(F)F)n[nH]1)N(CCN1CCCCCC1)Cc1cccc([N+](=O)[O-])c1Cl [Example 210, N-(2-chloro-3-nitrobenzyl)-N-(2-(azepan-1-yl)ethyl)-3-(trifluoromethyl)-1H-pyrazole-5-carboxamide] the “Max. Resp.” value was 100%.

O=C(c1cc(C(F)(F)F)n[nH]1)N(CCN1CCCCCC1)Cc1c(Cl)cccc1[N+](=O)[O-] [Example 211, N-(2-chloro-6-nitrobenzyl)-N-(2-(azepan-1-yl)ethyl)-3-(trifluoromethyl)-1H-pyrazole-5-carboxamide] was tested, and the “Max. Resp.” value was 100%.

In the case of CC1CCCC(C)N1CCN(Cc1ccccc1Cl)C(=O)c1cc(C(F)(F)F)n[nH]1 (stereo not shown) [Example 212, N-(2-chlorobenzyl)-3-(trifluoromethyl)-N-(2-(2,6-dimethylpiperidin-1-yl)ethyl)-1H-pyrazole-5-carboxamide], the “Max. Resp.” value is reported as 53%.

In the case of Nc1cccc(CN(CCN2CCCCCC2)C(=O)c2cc(C(F)(F)F)n[nH]2)c1Cl [Example 213, N-(3-amino-2-chlorobenzyl)-N-(2-(azepan-1-yl)ethyl)-3-(trifluoromethyl)-1H-pyrazole-5-carboxamide], the “Max. Resp.” value is reported as 100%.

For Nc1ccc(F)c(CN(CCN2CCCCCC2)C(=O)c2cc(C(F)(F)F)n[nH]2)c1 [Example 214, N-(5-amino-2-fluorobenzyl)-N-(2-(azepan-1-yl)ethyl)-3-(trifluoromethyl)-1H-pyrazole-5-carboxamide], the “Max. Resp.” value was 100%.

With COc1ccc(N)cc1CN(CCN1CCCCCC1)C(=O)c1cc(C(F)(F)F)n[nH]1 [Example 215, N-(5-amino-2-methoxybenzyl)-N-(2-(azepan-1-yl)ethyl)-3-(trifluoromethyl)-1H-pyrazole-5-carboxamide] the “Max. Resp.” value was 100%.

For Nc1cccc(CN(CCN2CCCCCC2)C(=O)c2cc(C(F)(F)F)n[nH]2)c1F [Example 216, N-(3-amino-2-fluorobenzyl)-N-(2-(azepan-1-yl)ethyl)-3-(trifluoromethyl)-1H-pyrazole-5-carboxamide], the “Max. Resp.” value was 100%.

For COc1c(N)cccc1CN(CCN1CCCCCC1)C(=O)c1cc(C(F)(F)F)n[nH]1 [Example 217, N-(3-amino-2-methoxybenzyl)-N-(2-(azepan-1-yl)ethyl)-3-(trifluoromethyl)-1H-pyrazole-5-carboxamide], the “Max. Resp.” value was 100%.

Nc1cccc(Cl)c1CN(CCN1CCCCCC1)C(=O)c1cc(C(F)(F)F)n[nH]1 [Example 218, N-(2-amino-6-chlorobenzyl)-N-(2-(azepan-1-yl)ethyl)-3-(trifluoromethyl)-1H-pyrazole-5-carboxamide] was tested, and the “Max. Resp.” value was 100%.

In the case of O=C(c1cc(C(F)(F)F)n[nH]1)N(CCN1CCC(O)CC1)Cc1ccccc1Cl [Example 219, N-(2-chlorobenzyl)-3-(trifluoromethyl)-N-(2-(4-hydroxypiperidin-1-yl)ethyl)-1H-pyrazole-5-carboxamide], the “Max. Resp.” value is reported as 100%.

In the case of O=C(c1cc(C(F)(F)F)n[nH]1)N(CCN1CCCC(O)C1)Cc1ccccc1Cl (stereo not shown) [Example 220, N-(2-chlorobenzyl)-3-(trifluoromethyl)-N-(2-(3-hydroxypiperidin-1-yl)ethyl)-1H-pyrazole-5-carboxamide], the “Max. Resp.” value is reported as 100%.
